# Laboratory results from US6541484B2 (dated 2003).
# Counter-ions that a name gives are not always drawn.
row,Compound,melting point [°C]
1,Cn1ncnc1COc1nc2c(cnn2-c2ccccc2)c2ccccc12,149 to 151
2,CCn1ncnc1COc1nc2c(cnn2-c2ccccc2)c2ccccc12,147 to 148
3,Cn1ncnc1COc1nc2c(cnn2-c2ccccc2)cc1C(C)(C)C,143 to 145
4,Cn1ncnc1COc1cc(N)c2cnn(-c3ccccc3)c2n1,164 to 166
5,CCn1ncnc1COc1nc2c(cnn2-c2ccccc2)cc1C(C)(C)C (as salt: hydrochloride),150 to 152
